The structures appear in SMILES notation. Like-named read-outs stand apart in the source and are kept apart here.

Broadly, the IC50 is the concentration that gives 50% inhibition. A higher IC50 goes with weaker potency.

One assay concerns the target AKT1 (Homo sapiens, UniProt P31749). Nature of the assay: Inactive AKT Alpha Screen Assay.
In assay [1] the test system is pPRAS40 in KU-19-19 (E17K) mutant bladder cancer cells. Nature of the assay: pPRAS40 in KU-19-19 cells, two hour treatment. To be noted: normal medium, 2 hours, FIGS. 17 and 18.
The subject of assay [2] is pAKT in KU-19-19 (E17K) mutant bladder cancer cells. The experiment in a line: pAKT in KU-19-19 cells, two hour treatment. The conditions noted are these: normal medium, 2 hours, FIGS. 17 and 18.
Assay [3] deals with S6 phosphorylation in Proteus single cell clones. To be noted: F6B mutation positive and H4A mutation negative clones; with or without serum; FIGS. 16A and 16B.
Assay [4] deals with Proteus single cell clones (A6B AKT1 p.E17K positive and E8F9A mutation negative cells). Nature of the assay: Viability of Proteus single cell clones. The class given is cell-based, human. To be noted: presence or absence of serum; 24 hours serum starvation; 72 hours; FIGS. 5A and 5B.
Assay [5] relates to AKT1 phosphorylation in Proteus single cell clones. The conditions noted are these: FIG. 15.

Sequence of AKT1 (P31749 whole entry): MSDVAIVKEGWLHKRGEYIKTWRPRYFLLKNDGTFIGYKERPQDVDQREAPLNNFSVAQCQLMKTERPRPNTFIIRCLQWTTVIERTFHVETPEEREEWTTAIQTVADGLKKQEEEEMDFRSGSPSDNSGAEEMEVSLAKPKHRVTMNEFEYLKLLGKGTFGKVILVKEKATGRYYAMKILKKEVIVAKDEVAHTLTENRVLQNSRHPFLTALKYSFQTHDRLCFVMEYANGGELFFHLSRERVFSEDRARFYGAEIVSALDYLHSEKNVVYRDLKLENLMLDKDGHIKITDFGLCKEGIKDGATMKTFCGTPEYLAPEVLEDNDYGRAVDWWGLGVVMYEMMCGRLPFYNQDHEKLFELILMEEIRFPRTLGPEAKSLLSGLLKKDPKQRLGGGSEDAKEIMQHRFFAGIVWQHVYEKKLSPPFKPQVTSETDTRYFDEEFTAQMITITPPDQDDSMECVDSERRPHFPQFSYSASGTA

Take `Nc1ncccc1-c1nc2ccc(-c3cccc(N4CCOCC4)c3)nc2n1-c1ccc(C2(N)CCC2)cc1` [Compound 2, 3-(3-(4-(1-aminocyclobutyl)phenyl)-5-(3-morpholinophenyl)-3H-imidazo[4,5-b]pyridin-2-yl)pyridin-2-amine]: the midpoint of inhibition against AKT1, the IC50, lay at 2.2 nM.
In the case of `NC1(c2ccc(-c3nc4ccn5c(=O)[nH]nc5c4cc3-c3ccccc3)cc2)CCC1` [MK-2206, reference compound], the pPRAS40 result in assay [1] was “inhibit”. The pAKT result in assay [2] was “inhibit”.
For `CO[C@H]1C[C@@H]2CC[C@@H](C)[C@@](O)(O2)C(=O)C(=O)N2CCCC[C@H]2C(=O)O[C@H]([C@H](C)C[C@@H]2CC[C@@H](OCCO)[C@H](OC)C2)CC(=O)[C@H](C)/C=C(\C)[C@@H](O)[C@@H](OC)C(=O)[C@H](C)C[C@H](C)/C=C/C=C/C=C/1C` [everolimus], the pS6 levels result in assay [3] is listed as “greatly decreases pS6 levels”. Also, the “viability of Proteus single cell clones” value in assay [4] was “mutation positive cells are more sensitive than control cells”. For the same molecule, the pAKT/AKT ratio entry in assay [5] (F6B AKT1 p.E17K mutant cells in serum free conditions) is recorded as “decreases the pAKT/AKT ratio”; in assay [5] (mutant negative cells (H4A) or mutant cells gown in serum free conditions), “has no effect or increases the ratio”.

For the origin of these results see US9949981B2, “Compositions and methods for treating proliferation disorders” (Arqule, Inc., priority 2014, dated 2018).
